In one assay the test system is HeLa. Nature of the assay: Antiproliferative activity against human HeLa cells. The class given is functional, cell-based.
The target of assay [1] is T1, Bromodomain-containing protein 4 (Homo sapiens, UniProt O60885). Nature of the assay: Induction of BRD4 degradation in human HeLa cells assessed as maximum degradation at 30 nM after 12 hrs relative to control. The class given is cell-based.
A further assay deals with HFF-1. As to the kind of experiment: Antiproliferative activity against human HFF-1 cells. The format is functional, cell-based.
The next assay relates to HEK293. As to the kind of experiment: Induction of HaloTag7 fused GFP degradation in HEK293 cells assessed as maximum degradation relative to control. The format is cell-based. Conditions: Homo sapiens.
Assay [2] deals with T2, von Hippel-Lindau disease tumor suppressor (Homo sapiens, UniProt P40337). As to the kind of experiment: Binding affinity to VHL (unknown origin).
Target sequence in this assay (P40337 whole entry, the tested form may be a part): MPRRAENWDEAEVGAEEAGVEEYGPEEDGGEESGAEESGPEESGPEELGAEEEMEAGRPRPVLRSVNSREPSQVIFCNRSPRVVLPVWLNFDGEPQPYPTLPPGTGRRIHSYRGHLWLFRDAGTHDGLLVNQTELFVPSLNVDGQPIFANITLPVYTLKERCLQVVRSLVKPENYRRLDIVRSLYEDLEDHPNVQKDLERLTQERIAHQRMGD
Assay [3] in a line: Induction of HaloTag7 fused GFP degradation in HEK293 cells. The class given is cell-based. Conditions: Homo sapiens.
Assay [4] concerns the target T3, Tyrosine-protein kinase BTK (Homo sapiens, UniProt Q06187). As to the kind of experiment: Induction of BTK degradation in human MOLM-14 cells assessed as maximum degradation at 200 nM relative to control. The class given is cell-based.
The next assay concerns MOLM-14. Nature of the assay: Antiproliferative activity against human MOLM-14 cells. The class given is functional, cell-based.
Assay [5] is described as follows: Antiproliferative activity against human MINO cells. The format is functional, cell-based.
For assay [6], the target named is T3, Tyrosine-protein kinase BTK. As to the kind of experiment: Induction of BTK degradation in human MOLM-14 cells. The class given is cell-based.
For assay [7], the target named is E3 ubiquitin-protein ligase RNF114 (Homo sapiens, UniProt Q9Y508). As to the kind of experiment: Binding affinity to RNF114 (unknown origin).
E3 ubiquitin-protein ligase RNF114, sequence (Q9Y508 whole entry): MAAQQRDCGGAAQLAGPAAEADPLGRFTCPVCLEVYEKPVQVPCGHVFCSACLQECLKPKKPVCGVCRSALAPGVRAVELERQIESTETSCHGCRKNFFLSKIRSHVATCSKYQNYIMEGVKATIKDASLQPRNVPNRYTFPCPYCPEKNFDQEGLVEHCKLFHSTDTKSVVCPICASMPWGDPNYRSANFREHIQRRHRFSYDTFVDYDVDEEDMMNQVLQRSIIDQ
A further assay concerns HT-29. Nature of the assay: Antiproliferative activity against human HT-29 cells. The class given is functional, cell-based.
Assay [8] has as its target Dual specificity mitogen-activated protein kinase kinase; MEK1/2 (Homo sapiens) (UniProt P36507+Q02750). As to the kind of experiment: Induction of MEK degradation in human HT-29 cells assessed as maximum degradation at 100 nM after 12 hrs relative to control. The format is cell-based.
In assay [9] the target is T2, von Hippel-Lindau disease tumor suppressor. Nature of the assay: Induction of pVHL30 degradation in human HeLa cells incubated for 4 hrs. The class given is cell-based.
Assay [10] has the same target. Nature of the assay: Binding affinity to human VHL by isothermal calorimetric assay. (In general: Isothermal titration calorimetry measures the heat released or taken up as one component is titrated into another.)
Target sequence in this assay (P40337 whole entry, the tested form may be a part): as the sequence (P40337 whole entry, the tested form may be a part) above
In assay [11] the target is Hepatitis C virus serine protease, NS3/NS4A (Hepatitis C virus, UniProt A3EZI9+D2K2A8). As to the kind of experiment: Inhibition of HCV NS3/4a protease in Huh7.5 SGR cells using [Ac-DE-D(Edans)-EE-Abu-[COO]AS-K(Dabcyl)-NH2] as substrate preincubated for 15 mins followed by substrate addition and incubated for 1 hr by FRET assay. The class given is cell-based, Hepacivirus hominis.
Hepatitis C virus serine protease, NS3/NS4A, sequence (D2K2A8 whole entry): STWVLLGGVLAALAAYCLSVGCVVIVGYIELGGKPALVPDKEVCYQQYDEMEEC
Hepatitis C virus serine protease, NS3/NS4A, sequence (A3EZI9 whole entry): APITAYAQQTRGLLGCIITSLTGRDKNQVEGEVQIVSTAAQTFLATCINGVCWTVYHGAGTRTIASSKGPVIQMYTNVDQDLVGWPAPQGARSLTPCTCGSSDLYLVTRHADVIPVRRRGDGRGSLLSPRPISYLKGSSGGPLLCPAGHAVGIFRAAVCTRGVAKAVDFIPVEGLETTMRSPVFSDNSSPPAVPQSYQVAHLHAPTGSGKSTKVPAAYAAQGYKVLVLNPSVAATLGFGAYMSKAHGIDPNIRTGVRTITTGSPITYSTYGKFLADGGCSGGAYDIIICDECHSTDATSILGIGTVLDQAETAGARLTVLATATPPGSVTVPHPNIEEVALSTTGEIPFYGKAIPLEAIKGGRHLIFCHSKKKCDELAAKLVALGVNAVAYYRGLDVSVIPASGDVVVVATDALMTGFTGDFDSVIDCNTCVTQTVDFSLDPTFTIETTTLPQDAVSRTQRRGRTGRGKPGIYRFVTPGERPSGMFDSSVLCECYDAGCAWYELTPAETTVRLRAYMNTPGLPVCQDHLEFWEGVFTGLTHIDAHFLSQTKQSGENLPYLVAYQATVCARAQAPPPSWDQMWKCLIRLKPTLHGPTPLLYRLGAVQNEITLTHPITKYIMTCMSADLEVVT

Assay [12] concerns Hepatitis C virus. Nature of the assay: Antiviral activity against HCV harboring NS3 V55A mutant. The class given is functional, organism-based, Hepacivirus hominis.
The nature of assay [13]: Induction of HCV NS3 degradation after 4 hrs. On the set-up: species or system Hepacivirus hominis.
Assay [14] has as its system Hepatitis C virus. As to the kind of experiment: Antiviral activity against wild type HCV. The class given is functional, organism-based, Hepacivirus hominis.
For assay [15], the target named is T1, Bromodomain-containing protein 4. As to the kind of experiment: Induction of BRD4 degradation in 231MFP cells. The format is cell-based.
The target of a further assay is Protein fem-1 homolog B (Homo sapiens, UniProt Q9UK73). As to the kind of experiment: Binding affinity to FEM1B (unknown origin).
Protein fem-1 homolog B, sequence (Q9UK73 whole entry): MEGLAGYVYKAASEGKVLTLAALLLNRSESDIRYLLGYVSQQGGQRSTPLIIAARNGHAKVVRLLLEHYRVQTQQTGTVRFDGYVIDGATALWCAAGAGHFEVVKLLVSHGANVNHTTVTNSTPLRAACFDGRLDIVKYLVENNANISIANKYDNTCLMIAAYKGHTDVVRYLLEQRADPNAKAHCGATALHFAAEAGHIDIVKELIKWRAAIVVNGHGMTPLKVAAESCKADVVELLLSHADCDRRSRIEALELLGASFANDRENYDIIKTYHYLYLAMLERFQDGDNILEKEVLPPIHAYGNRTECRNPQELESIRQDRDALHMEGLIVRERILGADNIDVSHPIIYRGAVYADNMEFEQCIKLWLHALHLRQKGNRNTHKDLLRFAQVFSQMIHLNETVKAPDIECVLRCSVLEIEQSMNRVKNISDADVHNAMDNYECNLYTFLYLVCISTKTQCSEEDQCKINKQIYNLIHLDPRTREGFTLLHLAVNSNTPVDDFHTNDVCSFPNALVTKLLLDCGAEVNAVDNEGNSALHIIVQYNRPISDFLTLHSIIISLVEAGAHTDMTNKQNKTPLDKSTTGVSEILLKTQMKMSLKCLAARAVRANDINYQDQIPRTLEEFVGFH
Assay [16] concerns the target T1, Bromodomain-containing protein 4. Nature of the assay: Induction of BRD4 degradation in HEK293 cells after 8 hrs. The format is cell-based.
Assay [17] shares this target. As to the kind of experiment: Induction of BRD4 degradation in HEK293 cells assessed as maximum degradation after 8 hrs relative to control. The format is cell-based.
The next assay concerns Huh-7. Nature of the assay: Antiproliferative activity against human Huh-7 cells. The format is functional, cell-based.
A further assay concerns A549. As to the kind of experiment: Antiproliferative activity against human A549 cells. The format is functional, cell-based.
The next assay deals with HepG2. Nature of the assay: Antiproliferative activity against human HepG2 cells. The format is functional, cell-based.

T3 sequence (Q06187 whole entry): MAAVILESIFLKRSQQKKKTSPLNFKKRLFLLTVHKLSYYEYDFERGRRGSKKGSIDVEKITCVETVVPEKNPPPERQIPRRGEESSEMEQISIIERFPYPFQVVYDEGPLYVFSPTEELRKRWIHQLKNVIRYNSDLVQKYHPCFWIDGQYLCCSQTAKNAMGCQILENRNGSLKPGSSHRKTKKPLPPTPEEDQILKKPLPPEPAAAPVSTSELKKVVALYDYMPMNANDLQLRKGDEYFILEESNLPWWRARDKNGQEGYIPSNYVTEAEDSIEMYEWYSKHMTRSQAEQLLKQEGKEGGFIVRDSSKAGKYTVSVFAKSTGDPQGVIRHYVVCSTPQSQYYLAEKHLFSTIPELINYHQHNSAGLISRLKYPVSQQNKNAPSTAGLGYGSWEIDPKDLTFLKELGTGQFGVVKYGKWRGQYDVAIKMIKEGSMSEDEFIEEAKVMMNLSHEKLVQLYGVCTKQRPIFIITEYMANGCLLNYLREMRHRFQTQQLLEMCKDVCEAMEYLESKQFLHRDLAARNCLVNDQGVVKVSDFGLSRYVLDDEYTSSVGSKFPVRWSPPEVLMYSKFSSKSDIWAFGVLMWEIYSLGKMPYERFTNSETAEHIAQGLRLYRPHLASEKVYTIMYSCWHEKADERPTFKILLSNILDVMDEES
Dual specificity mitogen-activated protein kinase kinase; MEK1/2 (Homo sapiens), sequence (P36507 whole entry, looked up): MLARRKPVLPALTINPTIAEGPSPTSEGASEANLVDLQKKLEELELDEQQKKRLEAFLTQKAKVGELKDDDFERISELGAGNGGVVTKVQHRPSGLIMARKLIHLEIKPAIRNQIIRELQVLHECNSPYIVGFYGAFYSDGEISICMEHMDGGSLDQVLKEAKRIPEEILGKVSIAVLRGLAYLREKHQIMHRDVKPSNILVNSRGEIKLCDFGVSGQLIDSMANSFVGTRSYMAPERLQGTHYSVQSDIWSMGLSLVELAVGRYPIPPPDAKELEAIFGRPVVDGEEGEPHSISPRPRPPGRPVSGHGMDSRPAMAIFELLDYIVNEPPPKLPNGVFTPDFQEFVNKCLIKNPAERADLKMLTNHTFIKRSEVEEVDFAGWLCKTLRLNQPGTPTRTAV
Dual specificity mitogen-activated protein kinase kinase; MEK1/2 (Homo sapiens), sequence (Q02750 whole entry, looked up): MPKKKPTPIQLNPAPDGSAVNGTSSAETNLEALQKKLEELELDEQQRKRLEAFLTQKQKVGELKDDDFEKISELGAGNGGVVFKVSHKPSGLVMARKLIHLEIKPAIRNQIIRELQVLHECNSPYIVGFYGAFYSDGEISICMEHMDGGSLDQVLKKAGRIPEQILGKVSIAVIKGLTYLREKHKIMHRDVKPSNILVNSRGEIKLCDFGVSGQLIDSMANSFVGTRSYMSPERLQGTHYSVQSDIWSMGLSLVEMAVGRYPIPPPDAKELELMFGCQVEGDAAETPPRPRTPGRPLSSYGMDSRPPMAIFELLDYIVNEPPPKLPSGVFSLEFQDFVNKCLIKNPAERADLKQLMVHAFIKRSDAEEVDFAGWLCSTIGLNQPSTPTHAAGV

As for `Cc1ncsc1-c1ccc([C@H](C)NC(=O)[C@@H]2C[C@@H](OC(=O)CCCCn3cc(CNC(=O)CC[C@H](NC(=O)c4ccc(NCc5cnc6nc(N)[nH]c(=O)c6n5)cc4)C(=O)O)nn3)CN2C(=O)[C@@H](NC(=O)COCCCOCCNC(=O)C[C@@H]2N=C(c3ccc(Cl)cc3)c3c(sc(C)c3C)-n3c(C)nnc32)C(C)(C)C)cc1`, the IC50 is 246 nM with HeLa and greater than 10000 nM in the assay on HFF-1. Besides, in assay [1], the Emax came to 100%.
Consider `Cc1ncsc1-c1ccc(CNC(=O)[C@@H]2C[C@@H](O)CN2C(=O)[C@H](C(C)C)N2Cc3ccccc3C2=O)c(OCCOCCOCCOCCCCCCCl)c1`, for which the maximum response (Emax) with HEK293 amounted to 90%. Also, the IC50 in assay [2] turned out to be 540 nM. For the same compound, in assay [3], the half-maximal degradation concentration (DC50) stood at 19 nM.
As for `CN(CCCNC(=O)CNc1cccc2c1C(=O)N(C1CCC(=O)NC1=O)C2=O)C(C)(C)/C=C(\C#N)C(=O)N1CCC[C@@H](n2nc(-c3ccc(Oc4ccccc4)cc3)c3c(N)ncnc32)C1` (some centres not stated), the maximal effect (Emax) in [4] came out at 81%. Further, the IC50 in the assay on MOLM-14 is 300 nM; in assay [5] it was 80 nM. The DC50 in assay [6] was determined as 6.6 nM.
`COC(=O)C[C@H]1[C@]2(C)C3=C(C)[C@H](c4ccoc4-c4ccc(C(=O)NCCCNC(=O)C[C@@H]5N=C(c6ccc(Cl)cc6)C6C(C)=C(C)SC6n6c(C)nnc65)cc4)C[C@H]3O[C@@H]2C2OC(=O)[C@]3(C)C=CC(=O)[C@@]1(C)[C@@H]23` (some centres not stated) had an IC50 in assay [7] of 240 nM.
In turn, `Cc1ncsc1-c1ccc([C@H](C)NC(=O)[C@@H]2C[C@@H](OC(=O)CCCCn3cc(CNC(=O)CC[C@H](NC(=O)c4ccc(NCc5cnc6nc(N)[nH]c(=O)c6n5)cc4)C(=O)O)nn3)CN2C(=O)[C@@H](NC(=O)CCCCCCCCCCNCCCONC(=O)c2ccc(F)c(F)c2Nc2ccc(I)cc2F)C(C)(C)C)cc1` returned an IC50 with HT-29 of 246 nM. Moreover, the Emax in [8] came out at 90%.
In [9], `Cc1ncsc1-c1ccc(CNC(=O)[C@@H]2C[C@@H](O)CN2C(=O)[C@@H](NC(=O)COCCOCCOCCOCCOCCOC(=O)N[C@H](C(=O)N2C[C@H](O)C[C@H]2C(=O)NCc2ccc(-c3scnc3C)cc2)C(C)(C)C)C(C)(C)C)cc1` yielded a DC50 of less than 100 nM and an EC99 of 10 nM. Also, in assay [10], the Kd was 11 nM.
As to `CCC[C@H](NC(=O)[C@@H]1[C@H]2CCC[C@H]2CN1C(=O)[C@@H](NC(=O)[C@@H](NC(=O)c1cnc(C(=O)NCCOCCOCCOc2cc3c4c(cccc4c2)C(=O)N(C2CCC(=O)NC2=O)C3=O)cn1)C1CCCCC1)C(C)(C)C)C(=O)C(=O)NC1CC1` (some centres not stated), the results for the IC50 (in [11]; in the assay with Hepatitis C virus [12]; in the assay with Hepatitis C virus [14]) were 247 nM, 508 nM and 558 nM, respectively. In assay [13], this compound returned a DC50 of 50 nM.
Take `Cc1sc2c(c1C)C(c1ccc(Cl)cc1)=N[C@@H](CC(=O)NCCCCCNC(=O)CN1CCOc3cc(N(CCC#N)C(=O)CCl)ccc31)c1nnc(C)n1-2`: the DC50 in assay [15] amounted to 198 nM; in assay [16] it was 250 nM. In addition, the IC50 on Protein fem-1 homolog B came out at 1500 nM. Besides, in assay [17], the Emax came to 94%.
In the case of `C[C@H]1[C@H](C)CC[C@]2(C(=O)NCCOCCOCCOCCNc3cccc4c3C(=O)N(C3CCC(=O)NC3=O)C4=O)CC[C@]3(C)C(=CC[C@@H]4[C@@]5(C)CC[C@H](O)C(C)(C)[C@@H]5CC[C@]43C)[C@H]12` (some centres not stated), the IC50 with Huh-7 was determined as 390 nM; in the assay on A549 it was 230 nM; in the assay on HepG2, 380 nM.

One may read the IC50 as the concentration that inhibits the measured activity by half. A high value points to lower potency. As usually defined, the Emax is the size of the effect at its maximum, as opposed to the concentration needed. The term DC50 denotes the concentration at which degradation of the target reaches its halfway point. By EC99 is commonly meant the point of the concentration-response curve where the effect stands at 99%. As a reminder, the Kd is the free concentration of one partner at which half of the binding sites on the other are occupied at equilibrium, for simple one-to-one binding. High values mean a looser complex, low ones a tighter complex.

For the origin of these results see ChEMBL document CHEMBL5223100, “Homobivalent, Trivalent, and Covalent PROTACs: Emerging Strategies for Protein Degradation” (J Med Chem, 2022).
